{
  "source": "patent US20210145838A1",
  "about": "“SELECTIVE PDE4D INHIBITORS AGAINST DEMYELINATING DISEASES” (Universiteit Hasselt, priority 2018, published 2021)",
  "key": {"[1]": {"test_system": "primary rat Schwann cells", "test": "Differentiation of primary rat Schwann cells", "assay_type": "cell-based", "conditions": "Roflumilast 5 or 10 μM, BPN14770 1 or 5 μM", "procedure": "FIG. 16: Inhibition of PDE4 by roflumilast and PDE4D by BPN induces differentiation of primary rat schwann cells. Primary rat schwann cells were isolated from p3 Wistar rats. Primary rat schwann cells were cultured onto an aligned network of electrospinned fibers and stimulated with vehicle (0.1% DMSO), the PDE4 inhibitor Roflumilast (5 μM or 10 μM) or the PDE4D inhibitor BPN (1 μM or 5 μM), both dissolved in 0.1% DMSO. Cells were fixated (IHC) or lysated (WB and qPCR) at day 14.\nA: Primary rat schwann cells were stained for MBP (red) and MAG (green), both markers for Schwann cells differentiation (100.000 cells).\nB: MBP and β-actin protein expression of primary rat schwann cells was analyzed using western blot (500.000 cells)\nC: qPCR was conducted to evaluate changes in mRNA expression of MBP, PLP, MAG and SOX10. The expression of all these genes was increased upon PDE4 or PDE4D inhibition.\nPrimary rat Schwann cells were isolated from p3 Wistar rats. […] MBP and β-actin protein expression was analyzed using western blot analysis on primary rat Schwann cells (500.000 cells). […] Data were analyzed using a one-way ANOVA with Dunnett's multiple comparison test (compared to control); *p<0.05, **p<0.01, ***p<0.001. qPCR was conducted to evaluate changes in mRNA expression of MBP, PLP, MAG and SOX10."}, "[2]": {"test": "Emetic side-effects at the remyelination-inducing dose", "assay_type": "in vivo"}},
  "data": [
    {"smiles": "O=C(Nc1c(Cl)cncc1Cl)c1ccc(OC(F)F)c(OCC2CC2)c1", "note": "[roflumilast]", "values": [
      {"measurement": "MBP and MAG protein expression (IHC)", "setting": "[1]; day 14", "result": "increases dose-dependently"},
      {"measurement": "mRNA expression of MBP, MAG, PLP and SOX10 (qPCR)", "setting": "[1]; vs control conditions", "result": "increased"},
      {"measurement": "Emetic side-effects", "setting": "[2]", "result": "displayed emetic side-effects"}
    ]}
  ]
}
